Assay results: patent US7183324B2, “2,3,4-substituted cyclopentanones as therapeutic agents” (Allergan, Inc., priority 2004, dated 2007)

Experiments:
[1] = biological target: T1, HEP2 (Homo sapiens, UniProt P43116); experiment: Radioligand binding, EP2 receptor; conditions: [3H]PGE2 5 nM, HEK-293 membranes
T1 construct: expressed in transfected cells; host or cells: HEK-293
Procedure: (§1) HEK-293 cells stably expressing the human or feline FP receptor, or EP1, EP2, or EP4 receptors were washed with TME buffer, scraped from the bottom of the flasks, and homogenized for 30 sec using a Brinkman PT 10/35 polytron. TME buffer was added to achieve a final 40 ml volume in the centrifuge tubes (the composition of TME is 100 mM TRIS base, 20 mM MgCl2, […]; 10N HCl is added to achieve a pH of 7.4).
(§2) The cell homogenate was centrifuged at 19000 r.p.m. for 20 min at 4° C. using a Beckman Ti-60 rotor. The resultant pellet was resuspended in TME buffer to give a final 1 mg/ml protein concentration, as determined by Biorad assay. Radioligand binding competition assays vs. [^3H-]17-phenyl PGF2α (5 nM) were performed in a 100 μl volume for 60 min. Binding reactions were started by adding plasma membrane fraction. The reaction was terminated by the addition of 4 ml ice-cold TRIS-HCl buffer and rapid filtration through glass fiber GF/B filters using a Brandel cell harvester. The filters were washed 3 times with ice-cold buffer and oven dried for one hour. Non-specific binding was determined with 10 uM unlabeled 17-phenyl PGF2α.
(§3) [^3H-] PGE2 (5 nM; specific activity 180 Ci mmol) was used as the radioligand for EP receptors. Binding studies employing EP1, EP2, EP3, EP4 were performed in duplicate in at least three separate experiments. A 200 μl assay volume was used. Incubations were for 60 min at 25° C. and were terminated by the addition of 4 ml of ice-cold 50 mM TRIS-HCl, followed by rapid filtration through Whatman GF/B filters and three additional 4 ml washes in a cell harvester (Brandel). Non-specific binding determined with 10^−5M of unlabeled PGE2.

[2] = biological target: T2, HEP3D (Homo sapiens, UniProt P43115); experiment: Radioligand binding, EP3 receptor; conditions: [3H]PGE2 5 nM
T2 sequence (P43115 1-374 isoform P43115-4): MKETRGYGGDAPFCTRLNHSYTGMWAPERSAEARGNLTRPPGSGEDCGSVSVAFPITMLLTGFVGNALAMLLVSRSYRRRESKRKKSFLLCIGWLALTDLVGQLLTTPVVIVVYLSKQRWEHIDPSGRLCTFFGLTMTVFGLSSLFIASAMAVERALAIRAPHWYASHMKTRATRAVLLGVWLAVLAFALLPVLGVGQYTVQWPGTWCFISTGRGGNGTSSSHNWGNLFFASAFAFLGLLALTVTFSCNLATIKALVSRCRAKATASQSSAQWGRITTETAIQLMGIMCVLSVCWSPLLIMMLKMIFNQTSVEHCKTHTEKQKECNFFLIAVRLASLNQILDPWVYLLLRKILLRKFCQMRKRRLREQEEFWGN
Procedure: as §1, §2, §3

[3] = biological target: T3, HEP4 (Homo sapiens, UniProt P35408); experiment: Radioligand binding, EP4 receptor; conditions: [3H]PGE2 5 nM, HEK-293 membranes
T3 construct: expressed in transfected cells; host or cells: HEK-293
Procedure: as §1, §2, §3

[4] = biological target: T4, hEP2/Gqs5 (Homo sapiens, UniProt P43116); experiment: FLIPR calcium signal, hEP2/Gqs5; format: cell-based; conditions: HEK-293 (EBNA) cells, read-out: FUNCTIONAL EC50 HEP2
T4 construct: expressed in transfected cells; host or cells: HEK-293 (EBNA)
Procedure: (§4) HEK-293 (EBNA) cells, stably expressing one type or subtype of recombinant human prostaglandin receptors (prostaglandin receptors expressed: hDP/Gqs5; hEP1; hEP2/Gqs5; hEP3A/Gqi5; hEP4/Gqs5; hFP; hIP; hTP), were cultured in 100 mm culture dishes in high-glucose DMEM medium containing 10% fetal bovine serum, 2 mM 1-glutamine, 250 μg/ml geneticin (G418) and 200 μg/ml hygromycin B as selection markers, and 100 units/ml penicillin G, 100 μg/ml streptomycin and 0.25 μg/ml amphotericin B. • (b) Calcium Signal Studies on the FLIPR™
(§5) Cells were seeded at a density of 5×10^4 cells per well in Biocoat® Poly-D-lysine-coated black-wall, clear-bottom 96-well plates (Becton-Dickinson) and allowed to attach overnight in an incubator at 37° C. Cells were then washed two times with HBSS-HEPES buffer (Hanks Balanced Salt Solution without bicarbonate and phenol red, 20 mM HEPES, pH 7.4) using a Denley Cellwash plate washer (Labsystems). After 45 minutes of dye-loading in the dark, using the calcium-sensitive dye Fluo-4 AM at a final concentration of 2 μM, plates were washed four times with HBSS-HEPES buffer to remove excess dye leaving 100 μl in each well. Plates were re-equilibrated to 37° C. for a few minutes.
(§6) Cells were excited with an Argon laser at 488 nm, and emission was measured through a 510–570 nm bandwidth emission filter (FLIPR™, Molecular Devices, Sunnyvale, Calif.). Drug solution was added in a 50 μl volume to each well to give the desired final concentration. The peak increase in fluorescence intensity was recorded for each well. On each plate, four wells each served as negative (HBSS-HEPES buffer) and positive controls (standard agonists: BW245C (hDP); PGE2 (hEP1; hEP2/Gqs5; hEP3A/Gqi5; hEP4/Gqs5); PGF2α (hFP); carbacyclin (hIP); U46619 (hTP), depending on receptor). The peak fluorescence change in each drug-containing well was then expressed relative to the controls.
Compounds were tested in a high-throughput (HTS) or concentration-response (CoRe) format. […]

[5] = biological target: T5, hEP3A/Gqi5 (Homo sapiens, UniProt P43115); experiment: FLIPR calcium signal, hEP3A/Gqi5; format: cell-based; conditions: HEK-293 (EBNA) cells, read-out: FUNCTIONAL EC50 HEP3A
T5 construct: expressed in transfected cells; host or cells: HEK-293 (EBNA)
T5 sequence (P43115 1-390): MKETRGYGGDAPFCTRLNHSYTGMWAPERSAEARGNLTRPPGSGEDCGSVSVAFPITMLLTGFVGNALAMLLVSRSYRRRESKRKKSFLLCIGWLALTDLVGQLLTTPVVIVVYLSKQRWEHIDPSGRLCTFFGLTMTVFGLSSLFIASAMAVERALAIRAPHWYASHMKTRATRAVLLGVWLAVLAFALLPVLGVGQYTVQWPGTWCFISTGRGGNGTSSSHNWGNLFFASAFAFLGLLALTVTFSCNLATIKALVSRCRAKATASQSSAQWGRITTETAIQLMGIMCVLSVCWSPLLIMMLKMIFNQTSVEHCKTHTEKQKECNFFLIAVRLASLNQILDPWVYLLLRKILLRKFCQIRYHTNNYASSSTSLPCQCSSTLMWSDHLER
Procedure: as §4, §5, §6
(§7) Compounds were tested in a high-throughput (HTS) or concentration-response (CoRe) format. In the HTS format, forty-four compounds per plate were examined in duplicates at a concentration of 10^−5 M. To generate concentration-response curves, four compounds per plate were tested in duplicates in a concentration range between 10^−5 and 10^−11 M. The duplicate values were averaged. In either, HTS or CoRe format each compound was tested on at least 3 separate plates using cells from different passages to give an n≧3.

[6] = biological target: T6, hEP4/Gqs5 (Homo sapiens, UniProt P35408); experiment: FLIPR calcium signal, hEP4/Gqs5; format: cell-based; conditions: HEK-293 (EBNA) cells, read-out: FUNCTIONAL EC50 HEP4
T6 construct: expressed in transfected cells; host or cells: HEK-293 (EBNA)
Procedure: as §4, §5, §6, §7

[7] = biological target: T7, hTP (Homo sapiens, UniProt P21731); experiment: FLIPR calcium signal, hTP; format: cell-based; conditions: HEK-293 (EBNA) cells, read-out: FUNCTIONAL EC50 HTP
T7 construct: expressed in transfected cells; host or cells: HEK-293 (EBNA)
T7 sequence (P21731 1-343): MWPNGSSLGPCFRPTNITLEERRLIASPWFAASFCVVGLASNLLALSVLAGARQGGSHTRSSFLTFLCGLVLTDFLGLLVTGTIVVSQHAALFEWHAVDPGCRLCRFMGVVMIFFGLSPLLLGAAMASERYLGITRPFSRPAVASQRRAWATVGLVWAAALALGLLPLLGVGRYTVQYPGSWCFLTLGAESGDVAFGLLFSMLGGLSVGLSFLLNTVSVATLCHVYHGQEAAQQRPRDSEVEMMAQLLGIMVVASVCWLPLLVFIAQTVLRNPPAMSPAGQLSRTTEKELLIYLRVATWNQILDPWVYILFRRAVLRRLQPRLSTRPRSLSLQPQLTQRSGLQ
Procedure: as §4, §5, §6, §7

[8] = biological target: T8, hIP (Homo sapiens, UniProt P43119); experiment: FLIPR calcium signal, hIP; format: cell-based; conditions: HEK-293 (EBNA) cells, read-out: FUNCTIONAL EC50 HIP
T8 construct: expressed in transfected cells; host or cells: HEK-293 (EBNA)
Procedure: as §4
(§8) Cells were seeded at a density of 5×10^4 cells per well in Biocoat® Poly-D-lysine-coated black-wall, clear-bottom 96-well plates (Becton-Dickinson) and allowed to attach overnight in an incubator at 37° C. Cells were then washed two times with HBSS-HEPES buffer (Hanks Balanced Salt Solution without bicarbonate and phenol red, 20 mM HEPES, pH 7.4) using a Denley Cellwash plate washer (Labsystems). […]
(§9) Cells were excited with an Argon laser at 488 nm, and emission was measured through a 510–570 nm bandwidth emission filter (FLIPR™, Molecular Devices, Sunnyvale, Calif.). […] The peak increase in fluorescence intensity was recorded for each well. […] The peak fluorescence change in each drug-containing well was then expressed relative to the controls. […]

[9] = biological target: T9, hEP1 (Homo sapiens, UniProt P34995); experiment: FLIPR calcium signal, hEP1; format: cell-based; conditions: HEK-293 (EBNA) cells, read-out: FUNCTIONAL EC50 HEP1
T9 construct: expressed in transfected cells; host or cells: HEK-293 (EBNA)
T9 sequence (P34995 1-402): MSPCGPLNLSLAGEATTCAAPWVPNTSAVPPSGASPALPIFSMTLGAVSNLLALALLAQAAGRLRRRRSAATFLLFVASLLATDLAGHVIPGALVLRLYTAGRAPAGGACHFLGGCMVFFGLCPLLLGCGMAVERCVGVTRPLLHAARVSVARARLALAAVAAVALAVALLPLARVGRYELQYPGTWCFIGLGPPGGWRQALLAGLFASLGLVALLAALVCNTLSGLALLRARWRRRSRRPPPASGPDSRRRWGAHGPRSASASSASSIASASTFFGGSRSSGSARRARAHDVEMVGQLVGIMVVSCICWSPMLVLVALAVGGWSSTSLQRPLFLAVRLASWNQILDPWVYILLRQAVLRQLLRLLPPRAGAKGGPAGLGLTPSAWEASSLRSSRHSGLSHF
Procedure: as §4, §8, §9

[10] = biological target: T10, hDP/Gqs5 (Homo sapiens, UniProt Q13258); experiment: FLIPR calcium signal, hDP/Gqs5; format: cell-based; conditions: HEK-293 (EBNA) cells, read-out: FUNCTIONAL EC50 HDP
T10 construct: expressed in transfected cells; host or cells: HEK-293 (EBNA)
T10 sequence (Q13258 1-359): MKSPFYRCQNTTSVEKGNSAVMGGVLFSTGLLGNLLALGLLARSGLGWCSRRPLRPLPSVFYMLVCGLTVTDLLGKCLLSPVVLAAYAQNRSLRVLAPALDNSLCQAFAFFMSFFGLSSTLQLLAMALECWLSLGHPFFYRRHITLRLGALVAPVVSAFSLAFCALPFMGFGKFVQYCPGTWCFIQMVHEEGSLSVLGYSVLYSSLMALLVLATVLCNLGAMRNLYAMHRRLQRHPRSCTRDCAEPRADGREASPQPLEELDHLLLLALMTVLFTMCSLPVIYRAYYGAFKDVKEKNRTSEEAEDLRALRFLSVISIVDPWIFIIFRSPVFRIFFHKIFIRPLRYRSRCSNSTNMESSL
Procedure: as §4, §8, §9

T1 sequence (P43116 whole entry): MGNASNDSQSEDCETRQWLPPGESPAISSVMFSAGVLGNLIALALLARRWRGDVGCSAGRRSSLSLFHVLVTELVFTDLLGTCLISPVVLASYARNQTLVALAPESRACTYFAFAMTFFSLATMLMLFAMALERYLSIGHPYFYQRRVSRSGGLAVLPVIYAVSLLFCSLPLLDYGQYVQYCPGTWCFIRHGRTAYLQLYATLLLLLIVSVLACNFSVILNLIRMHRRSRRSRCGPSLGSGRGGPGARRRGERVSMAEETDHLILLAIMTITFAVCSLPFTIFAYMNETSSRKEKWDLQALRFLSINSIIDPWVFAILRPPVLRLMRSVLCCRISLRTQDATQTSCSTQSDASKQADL
T4 sequence (P43116 whole entry): as above
T6 sequence (P35408 whole entry): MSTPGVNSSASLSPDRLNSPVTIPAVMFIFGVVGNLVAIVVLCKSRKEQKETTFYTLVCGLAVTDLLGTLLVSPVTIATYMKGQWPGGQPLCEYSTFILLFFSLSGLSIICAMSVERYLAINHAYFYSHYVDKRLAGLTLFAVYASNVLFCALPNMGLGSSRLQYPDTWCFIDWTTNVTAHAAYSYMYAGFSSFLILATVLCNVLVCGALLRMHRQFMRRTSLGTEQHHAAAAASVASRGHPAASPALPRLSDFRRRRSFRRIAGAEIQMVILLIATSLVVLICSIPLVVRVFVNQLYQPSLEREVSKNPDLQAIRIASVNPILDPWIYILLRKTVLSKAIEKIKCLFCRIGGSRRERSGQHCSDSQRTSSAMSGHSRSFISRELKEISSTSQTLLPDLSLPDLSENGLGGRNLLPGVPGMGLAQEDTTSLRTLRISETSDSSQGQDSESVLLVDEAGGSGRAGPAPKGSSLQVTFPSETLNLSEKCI
T3 sequence (P35408 whole entry): as above
T8 sequence (P43119 whole entry): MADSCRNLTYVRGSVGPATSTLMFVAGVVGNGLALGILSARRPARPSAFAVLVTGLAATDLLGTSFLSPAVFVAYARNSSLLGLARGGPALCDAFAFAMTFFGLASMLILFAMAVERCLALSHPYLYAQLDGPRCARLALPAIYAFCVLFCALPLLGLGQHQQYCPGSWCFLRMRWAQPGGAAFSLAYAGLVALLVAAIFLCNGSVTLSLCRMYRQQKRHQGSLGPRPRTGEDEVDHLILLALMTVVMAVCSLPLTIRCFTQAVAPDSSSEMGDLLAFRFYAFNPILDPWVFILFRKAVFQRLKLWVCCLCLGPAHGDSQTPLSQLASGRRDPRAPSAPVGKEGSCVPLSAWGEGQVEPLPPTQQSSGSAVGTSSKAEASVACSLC

Structure (SMILES)	IC50 [1]	IC50 [2]	IC50 [3]	EC50 [4]	EC50 [5]	EC50 [6]	EC50 [7]	EC50 [8]	EC50 [9]	EC50 [10]
O=C(O)CSCCCS[C@H]1C(=O)CC[C@@H]1/C=C/C(O)Cc1csc2ccccc12 (single isomer, unassigned) [drawing 55, {3-[2-(4-Benzo[b]thiophen-3-yl-3-hydroxy-but-1-enyl)-5-oxo-cyclopentylsulfanyl]-propylsulfanyl}-acetic acid]	600 nM	> 10000 nM	26 nM	> 10000 nM	> 10000 nM	7240 nM	3.7 nM	389 nM		
O=C(O)CSCCCS[C@H]1C(=O)CC[C@@H]1/C=C/C(O)Cc1csc2ccccc12 (single isomer, unassigned) [drawing 56, {3-[2-(4-Benzo[b]thiophen-3-yl-3-hydroxy-but-1-enyl)-5-oxo-cyclopentylsulfanyl]-propylsulfanyl}-acetic acid]	3500 nM	> 10000 nM		> 10000 nM	> 10000 nM	6.8 nM	> 10000 nM			
CCCCC[C@H](O)/C=C/[C@H]1CCC(=O)[C@@H]1SCCCSCC(=O)O [{3-[(1R,2R)-2-((E)-(S)-3-Hydroxy-oct-1-enyl)-5-oxo-cyclopentylsulfanyl]-propylsulfanyl}-acetic acid]	2200 nM		20 nM	1220 nM	16 nM	1.6 nM			> 10000 nM	> 10000 nM
